In patent publication US5162571A, “Phenol derivatives, their production and use” (Takeda Chemical Industries, Ltd., priority 1987, dated 1992):

What was measured:
[1] = tested on: lipid peroxides production in rat brain homogenates; experiment: Inhibitory action on lipid peroxides production in rat brain homogenates; type: biochemical; details: 10^-5 M
Procedure: Inhibitory action on lipid peroxides production in rat brain homogenates
Method: The male SD rat brain tissue was used as 5% homogenate in phosphate-buffered solution. After incubation of the homogenate for 1 hour at 37° C., the amount of lipid peroxides produced was determined by the thiobarbituric acid method according to the description of Ohkawa et al. (Analytical Biochemistry, 95: 551, 1979)
Test compounds were used as a solution of dimethylsulfoxide. The inhibitory action on lipid peroxide production was expressed as a % inhibition as compared with the amount of production in the vehicle group.

[2] = tested on: U-46619 (TXA2 mimic)-induced broncho-constriction; experiment: Inhibitory effect on U-46619 (TXA2 mimic)-induced broncho-constriction in guinea pig; type: in vivo; details: Cavia porcellus, iv; 0.31 mg/kg i.v., 9 minutes before U-46619; ** p < 0.01
Procedure: Inhibitory effect on U-46619 (TXA2 mimic)-induced broncho-constrictionin guinea pig
Method: Eight male Hartley guinea pigs were used per one group. The guinea pig anesthetized with urethane (1.5 g/kg, i.p.) was fixed in a dorsal position, subjected to tracheotomy and connected to a respirator through a cannula. A side branch of the tracheal cannula was connected to a respirator (Harvard apparatus rodent respirator Type 680) at the rate of 70 strokes/min. and a constant volume of 3 to 5 ml.
Inflation pressure was kept constant at 10 cm H2 O.
After treatment with gallamine triethiodide (1 mg/kg, i.v.), U-46619 (10 μg/Kg) dissolved in a physiological saline solution was given through a carotid cannula and the airway resistance was measured by the overflow technique of Konzett-Rossler method (Konzett, H. and Rossler, R., Naunyn-Schmiedegerg's Arch, Exp. Path. Pharmak., 195, 71-74 (1940). A test compound was suspended in 5% gum arabic solution and was administered orally 1 hour before the treatment with U-46619.
Alternatively, a test compound was dissolved in aqueous 50% dimethylsulfoxide solution and administered interveneously in the dosage of 0.1 ml/100 g body weight 9 minutes before the treatment of U-46619.

[3] = target: T1, specific [^3 H] U-46619 binding to guinea pig platelet membrane (Cavia porcellus, UniProt A0A286Y4I8); experiment: Inhibition of specific [^3 H] U-46619 binding to guinea pig platelet membrane; details: [^3 H] U-46619, 25° C., 30 min; read-out: IC50 (Concentration for 50% inhibition)
T1 construct: Platelet membranes were prepared according to the following procedure; from tissue; host or cells: guinea pig platelet membranes
T1 sequence (A0A286Y4I8 1-347): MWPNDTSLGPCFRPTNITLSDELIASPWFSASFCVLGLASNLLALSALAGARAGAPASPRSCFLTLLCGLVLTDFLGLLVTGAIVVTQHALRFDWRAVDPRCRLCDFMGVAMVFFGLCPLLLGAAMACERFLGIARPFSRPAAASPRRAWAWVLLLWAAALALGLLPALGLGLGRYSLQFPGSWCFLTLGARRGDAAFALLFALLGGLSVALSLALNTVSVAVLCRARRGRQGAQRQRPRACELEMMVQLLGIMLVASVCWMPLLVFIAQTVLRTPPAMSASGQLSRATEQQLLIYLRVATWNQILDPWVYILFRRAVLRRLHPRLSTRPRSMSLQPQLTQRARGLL
Procedure: Inhibition of specific [^3 H] U-46619 binding to guinea pig platelet membrane
Method: Blood from normal guinea pig was collected into 0.315% citrate solution containing aspirin (final concentration 1 mM) and was centrifuged at 3000 r.p.m. for […]. The PRP (platelet rich plasma) was centrifuged at 4800 r.p.m for 10 min. at 4° C. Platelet membranes were prepared according to the following procedure: In order to remove the residual plasma protein, the platelet pellet was washed once with 30 ml of buffer containing 25 mM Tris-HCl/5 mM MgCl2 (pH 7.4) and recentrifuged to pellet the platelets. The platelets were then resuspended in 20 ml of the same buffer, and the cells were disrupted by sonication. The sonication was performed on ice using a Kontes Sonicator (Vineland, N.J.). The platelets were sonicated for a total of 90 sec. with a 15 sec. burst followed by a 15 sec. intermission. The sonicated mixture was centrifuged at 100,000×g for 1 hour and the membrane fraction was suspended in the same buffer. The protein concentration was adjusted to 1 mg/ml.
The binding assay was performed at 25° C. for 30 min. One ml of the resuspended membrane fraction was incubated with […] of [^3 H] U-46619. The incubation mixture was filtered through a glass fiber membrane (GF/C, whatman) to separate the membrane bound from free [^3 H] U-46619. The membranes were quickly washed twice with 5 ml of cold buffer, mixed with 4 ml of ACS scintillation fluid and counted for [^3 H] U-46619.

[4] = target: T2, Thromboxane A2 (TXA2) receptor (Oryctolagus cuniculus, UniProt Q6WQI8); experiment: Thromboxane A2 (TXA2) receptor antagonism: inhibitory effect on contraction of rabbit aorta by TXA2-mimics; type: cell-based; details: U-44069 (10^-7 M)-induced contraction
T2 construct: contraction by TXA2 mimics U-44069 or U-46619
T2 sequence (Q6WQI8 1-233): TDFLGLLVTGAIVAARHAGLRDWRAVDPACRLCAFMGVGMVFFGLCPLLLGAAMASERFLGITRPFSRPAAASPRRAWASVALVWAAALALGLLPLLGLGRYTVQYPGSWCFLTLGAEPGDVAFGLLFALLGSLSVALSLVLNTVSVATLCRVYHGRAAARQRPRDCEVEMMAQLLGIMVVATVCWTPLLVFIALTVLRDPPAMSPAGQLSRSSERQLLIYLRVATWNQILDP
Procedure: Thromboxane A2 (TXA2) receptor antagonism
Inhibitory effect on contraction of rabbit aorta by thromboxan A2 (TXA2)-mimics
Method: A spiral strip of the rabbit aorta (2-3 mm wide, about 3 cm long) was suspended in Krebs-Henseleit solution under the load of 2 g. The Krebs-Henseleit solution was saturated with a mixed gas of 95%O2 -5%CO2 and warmed at 37° C. Inhibition of the contraction of the vascular strip caused by a TXA2 mimic substance U-44069^1) (10^-7 M) or U-46619^2) (3×10 ^-8 M), by pretreatment with Compound No. 13 30 minutes before was studied.
1) U-44069: (5Z, 9α, 11α, 13E, 15S)-15-hydroxy-9,11-(epoxymethano)-prosta-5,13-dienoic acid (manufacturedby The Upjohn Company in U.S.A.)
2) U-46619: (5Z, 9α, 11α, […], 15S)-15-hydroxy-11,9-(epoxymethano)-prosta-5,13-dienoic acid (manufacturedby Cayman Chemical Company)
In Table 5, "*" represents addition of U-46619.

[5] = Extension of bleeding time; type: in vivo, rat; details: one hour before
Procedure: Extension of bleeding time
Method: Test compounds were administered orally to rats one hour before the experiments. The rats were anesthetized and the tail was cut at 1.5 mm from the tip. Immediately, the tail was hung down into a physiological saline warmed at 37° C. The time required from initiation to stop of bleeding (bleeding time) was measured.

IC50 [3]: 200 nM
inhibition at 10 µM ([4]; 10^-5 M): 100%
inhibition at 1 µM ([4]; 10^-6 M): 79%
inhibition at 0.1 µM ([4]; 10^-7 M): 12%
Bleeding time ([5]; 10 mg/kg oral, control 173 ± 23, * p < 0.05): 272 ± 52 s
Bleeding time ([5]; 30 mg/kg oral, control 164 ± 27, ** p < 0.01): 258 ± 14 s
SMILES: Cc1c(C)c(Br)c(C)c(C(CCCCCC(=O)O)c2ccc(F)cc2)c1O (centres unmarked) [Compound 12, 7-(5-bromo-2-hydroxy-3,4,6-trimethylphenyl)-7-(4-fluorophenyl)heptanoic acid]
Inhibition (%) [1]: 100%
inhibition in vivo at 0.31 mg/kg [2]: 96%
